From article PMC7997574, “Lead Optimization of Benzoxazolone Carboxamides as Orally Bioavailable and CNS Penetrant Acid Ceramidase Inhibitors” (Journal of Medicinal Chemistry, 2020)

Tests used:
[1] = target: T1, monoacylglycerol lipase (MAGL) (Homo sapiens, UniProt Q99685); test: In vitro hMAGL colorimetric assay; format: biochemical; details: 1 and 10 μM
T1 construct: purchased Cayman Scientific item; 705192
T1 sequence (Q99685 1-303): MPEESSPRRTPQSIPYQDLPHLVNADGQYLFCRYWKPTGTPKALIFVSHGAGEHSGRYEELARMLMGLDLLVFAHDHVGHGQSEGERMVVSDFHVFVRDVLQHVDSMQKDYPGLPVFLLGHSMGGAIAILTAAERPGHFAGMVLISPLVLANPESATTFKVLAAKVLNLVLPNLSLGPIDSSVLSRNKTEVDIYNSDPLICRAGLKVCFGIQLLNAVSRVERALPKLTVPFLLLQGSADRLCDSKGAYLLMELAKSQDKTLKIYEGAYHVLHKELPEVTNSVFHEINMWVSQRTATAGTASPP
Method: The colorimetric assay to measure hMAGL activity was performed using an assay kit provided by Cayman Scientific (item. 705192), according to the manufacturer’s instructions. Briefly, in vitro activity was measured in 96-well plates, and DMSO was used as solvent. 10 μL of DMSO (100% initial activity wells: 100% IA) or compounds at two concentrations (1 and 10 μM) were preincubated for 5 min at rt with 150 μL of diluted assay buffer (10 mM Tris HCl, pH 7.2, containing 1 mM EDTA) containing hMAGL. In blank wells, 160 μL of the diluted assay buffer and 10 μL of DMSO were added. The reactions were initiated by adding 10 μL of MAGL substrate to all the wells, and plates were incubated for 10 min at rt. Absorbance values were measured at 405 nm, and percent inhibition was calculated by the following method: 100 – (Inhibitor/100% IA) × 100. The reported percentages of inhibition are the mean of at least three independent experiments performed in three technical replicates.

[2] = In vivo pharmacokinetic study in male CD1 mice; details: mouse
Method: Male CD1 mice (22–24 g, 6 weeks old, SLAC Laboratory Animal Co. Ltd.) were group-housed in ventilated cages and had free access to water and food. They were maintained under a […] at controlled temperature and relative humidity. All efforts were made to minimize animal suffering and to use the minimal number of animals required to produce reliable results. All procedures were performed in accordance with the Ethical Guidelines on the Protection of Animals Used for Scientific Purposes at the DMPK Group at Shanghai ChemPartner Co., Ltd. 22m was administrated intravenously (i.v.) at 3 mg kg^–1 (vehicle: 100% saline at 0.6 mg mL^–1) via tail vein injection (N = 18) and via oral administration (p.o.) at 10 mg kg^–1 (vehicle: 100% saline at 2.0 mg mL^–1) by oral gavage (N = 18). Sample collection. Samples were collected at 0.25, 0.5, 1, 4, 8, and 24 h. Animals were sacrificed 24 h after 22m administration; plasma, brain, and CSF samples were collected and stored at −80 °C. Blood collection: The animal was restrained manually, and approximately 150 μL of blood/time point was collected into the K2EDTA tube via retro orbital puncture under anesthesia with isoflurane. The blood sample was put on ice and centrifuged to obtain the plasma sample (2000 × g, 5 min under 4 °C) within 15 min and then acidified following 100 μL of plasma + 1.0 μL of formic acid. An aliquot of 20 μL sample (pretreatment with 1% formic acid) was added with 200 μL of IS (propranolol, 40 ng mL^–1) in MeCN. The mixture was vortexed for 5 min and centrifuged at 6000 rpm for 10 min. The 0.5 μL mixture was injected into LC/MS/MS. Brain collection: Brain was removed and immediately homogenized immediately for 2 min with three volumes (v/w) of homogenizing solution (PBS:formic acid = 100:1), and then the solution was stored in tubes under −70 °C until analysis. An aliquot of 20 μL sample was added with 200 μL of MeCN, which contains IS (propranolol, 40 ng mL^–1) for protein precipitation. The mixture was vortexed for 5 min and centrifuged at 6000 rpm for 10 min. The 0.5 μL mixture was injected into LC/MS/MS. CSF collection: A midline incision was made on the neck. The muscle under the skin was cut to expose the cisterna magna. The CSF was collected by capillary. An aliquot of 3 μL sample was added with 90 μL of IS (propranolol, 40 ng mL^–1) in MeCN:H2O = 2:1 (added 1% formic acid). The mixture was vortexed for 5 min and centrifuged at 6000 rpm for 10 min. The 1.5 μL mixture was injected into LC/MS/MS. 22m sample levels were monitored on an LC/MS/MS-19 (API5500, Qtriple) system, using the calibration curve and […] as internal standard. Chromatography was carried out on a Waters BEH C18 column (2.1 × 50 mm, 1.7 μm) at 60 °C, setting a flow rate of 0.60 mL min^–1. Mobile phases were as follows: A = H2O/0.025% formic acid/1 mM NH4OAc and B = MeOH/0.025% formic acid/1 mM NH4OAc. After the initial 0.20 min at 10% of mobile phase B, the percentage of mobile phase B increased at 70% at 0.50 min, reaching steadily 90% in the range of 0.80–1.30 min. Then the system returned to the initial conditions in a single step until 1.80 min. The following parent (m/z)/daughter (m/z) transitions were monitored: 22m: m/z = 332.20/[…] Da; […] (IS): m/z: 260.30/116.10 Da.

[3] = plasma, oral bioavailability, 10 mg kg^–1 p.o.

## CC(C)CNC(=O)n1c(=O)oc2cc(C3CCN(C)CC3)ccc21 [22m, N-Isobutyl-6-(1-methyl-4-piperidyl)-2-oxo-1,3-benzoxazole-3-carboxamide]
[1]
  effect on MAGL: no effect
[2]; iv, CSF, 3 mg kg^–1 i.v.
  AUC at 24 h: 77.8 ng·h/mL
  Cmax at 24 h: 71.6 ng/mL
  Tmax: 15 min
  half-life at 24 h: 39.7 min
[2]; iv, brain, 3 mg kg^–1 i.v.
  AUC at 24 h: 10100 ng·h/mL
  Cmax at 24 h: 6440 ng/mL
  Tmax: 15 min
  half-life at 24 h: 60.6 min
[2]; iv, plasma, 3 mg kg^–1 i.v.
  AUC at 24 h: 212 ng·h/mL
  half-life: 60 min
  half-life at 24 h: 75.6 min
[2]; iv, plasma, 3 mg kg^–1 i.v., read-out: Cl (L h^–1 kg^–1) (converted)
  clearance at 24 h: 235 mL/min/kg
[2]; iv, plasma, 3 mg kg^–1 i.v., read-out: Vdss (L kg^–1)
  Vd at 24 h: 12.5 L/kg
[2]; [3]
  bioavailability: 58%
  bioavailability at 24 h: 58.3%
[2]; po, CSF, 10 mg kg^–1 p.o.
  AUC at 24 h: 119 ng·h/mL
  Cmax at 24 h: 52.2 ng/mL
  Tmax: 60 min
  half-life at 24 h: 73.8 min
[2]; po, brain, 10 mg kg^–1 p.o.
  AUC at 24 h: 14600 ng·h/mL
  Cmax at 24 h: 6900 ng/mL
  Tmax: 60 min
  half-life at 24 h: 70.8 min
[2]; po, plasma, 10 mg kg^–1 p.o.
  AUC at 24 h: 412 ng·h/mL
  Cmax at 24 h: 216 ng/mL
  Tmax at 24 h: 30 min
  half-life at 24 h: 61.8 min
